According to patent publication US12269901B2, “Peptide and use thereof” (ENSOL BIOSCIENCES, INC., priority 2019, dated 2025):

Assays:
[1] = test system: IFN-γ; experiment: IFN-γ mRNA expression in anti-CD28-stimulated splenocytes (RT-PCR, relative to GAPDH); type: cell-based; details: splenocytes of diabetic NOD mice, 2 ng/ml anti-mouse CD28, 100 mM peptide, 3 hr
Protocol: (§1) The end of the tail of the experimental animals prepared as in Example 2-1 was wounded once a week, and a drop of blood therefrom was measured for blood glucose levels using a glucometer (Roche, Accu-CHEK Performa). The blood glucose levels were confirmed to be “high” (600 mg/dL or more), the mice were subjected to cervical dislocation, and the spleen was extracted therefrom. A cell strainer (BD, 352350) was placed on a 50 ml tube, and the extracted spleen tissue was passed through the cell strainer using the plunger end of a syringe, after which the tube containing the strained cells was added with HBSS (Hanks' Balanced Salt solution) so that the cells were washed with water, followed by centrifugation (1,000 rpm, 5 min) to remove the supernatant. The cells were suspended with 1 ml of HBSS, added with 10 ml of 1×RBC lysis buffer (Ebioscience, 00-4333-57), mixed with gentle stirring, allowed to stand in ice for 5 min, and then centrifuged (1,000 rpm, 5 min) to remove the supernatant. The resulting cells were added with 10 ml of a RBC lysis buffer once more, allowed to stand in ice for 5 min, further centrifuged (1,000 rpm, 5 min) to remove the supernatant, and then washed two times with 10 ml of HBSS. After final centrifugation (1,000 rpm, 5 min), the cells were suspended with 1 ml of HBSS, 50 μl of the cells were diluted with a trypan blue solution at 1:1, and the number of cells was counted using a hemocytometer. […]
(§2) Thereafter, the cells were centrifuged (1,000 rpm, 5 min) to remove the supernatant, lysed through pipetting with 5 ml of TRIzol (Invitrogen, 15596-018), and allowed to stand at room temperature for 5 min. […] RNA was eluted by adding 30 μl of DEPC-treated water and quantified.
(§3) cDNA was synthesized through the experimental procedure for a cDNA synthesis kit (ELPISbio, EBT-1512) using […] of the quantified RNA. Then, in accordance with the procedure for a PCR (Polymerase Chain Reaction) kit (Solgent, SEF01-M50H), cDNA of each cytokine (IFN-γ, TNF-α, TGF-β1) and a housekeeping gene GAPDH for quantitative determination of changes in cytokine expression were amplified. […]

[2] = test system: TNF-α; experiment: TNF-α mRNA expression in anti-CD28-stimulated splenocytes (RT-PCR, relative to GAPDH); type: cell-based; details: splenocytes of diabetic NOD mice, 2 ng/ml anti-mouse CD28, 100 mM peptide, 3 hr
Protocol: as §1, §2, §3

[3] = test system: TGF-β1; experiment: TGF-β1 mRNA expression in anti-CD28-stimulated splenocytes (RT-PCR, relative to GAPDH); type: cell-based; details: splenocytes of diabetic NOD mice, 2 ng/ml anti-mouse CD28, 100 mM peptide, 72 hr
Protocol: as §1, §2, §3

[4] = test system: NOD/ShiLtJ mice with type 1 diabetes (insulitis); experiment: Effect of inhibiting or reducing development of insulitis (insulitis score of pancreatic islets, H&E); type: in vivo, mouse; details: NOD mice with type 1 diabetes, 5 mg/kg SC every morning and evening for 14 days, pancreas on 14th day
Description: (§4) The experimental animals were 8-week-old female NOD/ShiLtJ (Jackson Lab). NOD (Non-obese diabetic) mice are animal models of insulitis and type 1 diabetes. In these animals, it is known that type 1 diabetes occurs at 18 weeks of age on average and 90% of incidence thereof occurs by 30 weeks of age. All animals were housed under SPF barrier conditions. This study was approved by the Institutional Animal Care and Use Committee of Osong Medical Innovation Foundation Laboratory Animal Center (Kbio-IACUC-2018-066). The acclimation period was 1 week, and the light/dark cycle was 12 hr ([…]). The temperature was 20±2° C., and the relative humidity was 60 to 80%. Since the incidence of diabetes may be inhibited by intestinal microorganisms, water, the pH of which was adjusted to 2.8-3.2 using HCl, was supplied to the experimental animals.
(§5) The end of the tail of the experimental animals prepared above was wounded once a week and a drop of blood therefrom was measured for blood glucose levels using a glucometer (Roche, Accu-CHEK Performa). When the blood glucose levels were measured to be 250 mg/dL or more and the blood glucose levels remeasured on the third day thereafter was also 250 mg/dL or more, type 1 diabetes was considered to have occurred, and the experiment was conducted.
Two experimental animals with type 1 diabetes were selected as the treatment group of Example 1, and were subcutaneously (SC) administered with 100 μl of the peptide of Example 1 (5 mg/kg). The administration was performed every morning and evening for 14 days, and the blood glucose levels were measured using a glucometer. […] On the 14th day, one experimental animal, the blood glucose levels of which were measured to be less than 250 mg/dL, was selected as a normal group, and was used to compare the insulitis scores of experimental animals with type 1 diabetes and experimental animals without type 1 diabetes.
After measurement of the blood glucose levels on the 14th day, the pancreas was removed from the experimental animals and fixed in 10% […] buffered formalin (10% NBF, Sigma, HT5011) to manufacture a paraffin block. […] For the treatment group of Example 1, the number of islets in two animals was measured, individual islets were classified depending on the stage of insulitis to thus determine the insulitis score, and the number of islets corresponding to each insulitis stage among the total number of islets was represented as a percentage. For the negative control group and the normal group, the insulitis scores were determined as in the treatment group of Example 1, after which the number of islets corresponding to each insulitis stage among the total number of islets was represented as a percentage. […]

[5] = test system: NOD/ShiLtJ mice with type 1 diabetes; experiment: Effect of lowering blood glucose levels in animals with type 1 diabetes; type: in vivo, mouse; details: NOD mice with type 1 diabetes, 5 mg/kg SC every morning and evening, up to 14 days, two animals; negative control (PBS) continuously increased
Description: as §4
as §5, with “conducted. […]” for “conducted.”

Row | Substance | IFN-γ mRNA expression level compared to the negative control group (anti-CD28) [1] | TNF-α mRNA expression level compared to the negative control group (anti-CD28) [2] | TGF-β1 mRNA expression level compared to the negative control group (anti-CD28) [3] | percentage of islets in insulitis stage 3 compared to the negative control group [4] | percentage of islets in stage 0 (no insulitis) compared to the negative control group [4] | percentage of islets in stage 0 compared to the normal group [4] | percentages of islets in insulitis stages 0-2 compared to the negative control group [4] | blood glucose levels [5]
1 | YGAGAG [Comparative Example 2] | did not greatly change | increase | did not greatly change | – | – | – | – | –
2 | YGAGAGAGY [Example 1] | reduced | reduced | increased | decreased | approximately doubled | higher | increased | decreased significantly and then remained in the normal range
3 | GAGAGY [Comparative Example 1] | did not greatly change | did not greatly change | did not greatly change | – | – | – | – | –
